Molecules are shown by their SMILES. Values joined by “and” are separate entries in the source; they are usually repeats but may differ in a detail not shown here. Identical values can stand only once.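 How tested: cells in 96-well plates exposed to compound for 48 hours at five concentrations. At the GI50, growth is halved. TGI is the concentration that stops growth completely.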

What all share (assay): NCI tumour cell line growth inhibition, 48 h
The subject of assay [1] is DMS 273 small cell lung.
Assay [2] deals with DMS 114 small cell lung.
In assay [3] the test system is HOP-18 NSCLC.
Assay [4] relates to XF 498 CNS.
Assay [5] concerns KM20L2 colon.
Assay [6] deals with DLD-1 colon.
Assay [7] has as its system LXFL 529 NSCLC.
Assay [8] has as its system RXF-631 renal.
The subject of assay [9] is P388 leukemia.
Assay [10] has as its system P388/ADR leukemia.
Assay [11] deals with SN12K1 renal.
Assay [12] has as its system MDA-N.

In the case of `CC1CCCc2c1c1ccc3c(O)cccc3c1oc2=O` (stereo unspecified), the TGI was over 100 µM in assay [1]; 76.3 µM in [2]; over 100 µM in [3]; over 100 µM in assay [4]; over 100 µM in assay [5]; over 100 µM in [6]. In addition, the TGI in assay [7] is over 100 µM.
Regarding `CCOC(=O)C(C)(C)Oc1ccc2c(-c3ccc(Cl)cc3)c(-c3ccc(Cl)cc3)c(=O)oc2c1`, the TGI in assay [1], in assay [2], in assay [5], in [8], in assay [6] and in [7] was over 100 µM throughout.
Consider `CC1[C@@H]2CC=C3[C@H]4CCC5Cc6nc7c(nc6C[C@@]5(C)C4(O)CC(=O)[C@]32CO[C@]12OC(C)(C)CC2O)CC1CC[C@@H]2C3=C[C@H]4O[C@@]5(O[C@@](C)(CO)C[C@@H]5O)C(C)[C@@]4(O)[C@]3(C)[C@@H](O)CC2[C@]1(C)C7` (stereo partly specified), for which the GI50 was 0.00036 µM in [1]; 0.000367 µM in assay [2]; 0.000664 µM and 0.00202 µM in assay [5]; 0.0712 µM and 0.0866 µM in assay [6]; 0.000139 µM in [7]. Besides, the TGI in assay [9] was 0.00382 µM; in [10], 0.379 µM; in assay [3], over 3.6 µM; in assay [4], 0.256 µM; in [5], 0.0704 µM and 0.0675 µM; in assay [6], 0.874 µM and > 3.6 µM. Besides, the TGI in assay [11] is over 3.6 µM; in [7] it was 0.000387 µM.
Regarding `CS/C(c1ccccc1)=[N+](\[O-])Cc1ccccc1`, the TGI in [2], in assay [3], in [4], in [5], in [6] and in [7] was over 100 µM throughout.
Consider `CC(=O)/C=C1\CC(=O)Nc2ccccc2N1`, for which the TGI in [2], in [5], in assay [6] and in [7] was over 100 µM each time.
In the case of `COc1ccc2c(CCNC(=O)/C=C/c3ccccc3)c(C(C)=O)[nH]c2c1[N+](=O)[O-]`, the TGI is 29.2 µM in [1]; over 100 µM in [2]; over 100 µM in assay [5]; 28.4 µM in assay [8]; over 100 µM in [7].
Turning to `CC(=O)OC1CCC2C(=CCC3C2(C)C(=O)CC2(C)C(C4(C)OC(C(C)C)=CC4=O)C(O)CC32C)C1(C)C` (stereo unspecified), the TGI is 58.3 µM in assay [1]; 57.8 µM in assay [2]; over 100 µM in [4]; 51.4 µM in assay [5]; over 100 µM in [6]; 92.1 µM in [7].
Consider `CCN(CC)c1ccc(N=C2C=C(Cl)C(=O)c3ncccc32)c(C)c1`, for which the TGI in [1] amounted to 16.8 µM; in assay [2] it was 8.19 µM; in assay [3], 9.75 µM; in assay [4], 18.7 µM; in assay [5], 26.9 µM; in assay [8], 35.3 µM. Also, the TGI in assay [6] is 17 µM.
For `CN(C)CCSCCO`, in [12], the TGI is over 100 µM.
`O=C(Nc1ccc(Br)cc1)C(=O)C(C(=O)c1ccccc1F)C1OC(=O)c2ccccc21` (stereo unspecified): the TGI is over 100 µM in assay [1]; 62.8 µM in assay [2]; over 100 µM in [3]; over 100 µM in [5]; over 100 µM in assay [8]; 80.1 µM in assay [6]. This molecule also gave a TGI in assay [7] of 89.5 µM.
Turning to `CCOC(=O)c1ccc(N2C(=O)Cc3ccccc3C2=O)cc1`, the TGI in assay [1], in assay [2], in assay [5] and in assay [7] was over 100 µM in each case.
On to `OCC(O)C(O)C(O)c1nn(-c2ccccc2)c2nc3cc(Cl)c(Cl)cc3nc12` (stereo unspecified), for which the TGI in [1] was over 100 µM; in assay [2], over 100 µM; in [3] it was over 100 µM; in assay [4] it was 69.3 µM; in assay [5] it was over 100 µM; in assay [6], over 100 µM. This molecule also came in with a TGI in assay [7] of over 100 µM.
For `O=C(NC1C2CC3CC(C2)CC1C3)/C(Cl)=C1/Sc2ccccc2NC1=O` (stereo unspecified), the TGI in assay [1], in assay [2], in [3], in assay [4], in assay [5] and in [6] was over 100 µM in each case. The TGI in [7] was over 100 µM.
Regarding `O=C(Nc1nc2ccc([N+](=O)[O-])cc2s1)C(=O)C(C(=O)c1ccncc1)C1OC(=O)c2ccccc21` (stereo unspecified), the TGI in [1], in [2], in [3], in [4], in assay [5] and in [8] was over 100 µM throughout. For the same molecule, the TGI in assay [6] and in assay [7] was over 100 µM in each case.
For the molecule `CC(C)C(=O)[O-].CC(C)C(=O)[O-].N.N.N.N.[Co+3].[O-][Cl+3]([O-])([O-])[O-]`, the GI50 in assay [1], in [5], in assay [6] and in [7] was over 100 µM throughout. Also, the TGI in assay [1], in [5], in assay [6] and in assay [7] was over 100 µM each time.
